TGI and GI50 data for 18 molecules are collected here from PubChem BioAssay (NCI).

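1) Cells in 96-well plates. 2) Compound, 48 h, 5 concentrations. 3) Linear interpolation between surrounding doses. 4) Unreached endpoint = highest concentration. Abbreviation: GI50, concentration required for 50% inhibition of growth. Definition used: TGI = concentration required for complete inhibition of growth.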

Test systems include COLO 205 colon; HCT-15 colon; KM12 colon; NCI-H23 lung; RPMI-8226 leukemia; SF-268 CNS; SF-539 CNS; SW-620 colon; UACC-257 melanoma; K-562 leukemia.
What all share (test): NCI anticancer screen, dose series, 48 h

For `CC(C)C1C(=O)N2CCCC2C2(O)OC(NC(=O)C3C=C4c5cccc6[nH]cc(c56)CC4N(C)C3)(C(C)C)C(=O)N12` (configuration not stated), the TGI is 51.5 µM with COLO 205 colon; 54.9 µM in the test on HCT-15 colon; 47.7 µM with KM12 colon; over 100 µM in the test on NCI-H23 lung; 47.9 µM in the test with RPMI-8226 leukemia; over 100 µM in the test on SF-268 CNS. For the same molecule, the TGI in the test with SF-539 CNS was 52.4 µM; in the test on SW-620 colon, over 100 µM; in the test with UACC-257 melanoma, 76.2 µM.

For the molecule `C=C(C)C1CC=C(C(=O)O)CC1` (configuration not stated), the TGI in the test on COLO 205 colon was 1620 µM; with HCT-15 colon, 1670 µM; in the test with K-562 leukemia, over 5000 µM; in the test on KM12 colon, 2140 µM; in the test with NCI-H23 lung, 2200 µM; in the test with SF-268 CNS it was 4060 µM. Moreover, the TGI in the test on SF-539 CNS was 2510 µM; in the test on SW-620 colon, over 5000 µM; in the test on UACC-257 melanoma, 3450 µM.

Regarding `COc1ccc2cc(C(=O)c3ccccc3C(=O)O)ccc2c1`, the TGI in the test with COLO 205 colon, with HCT-15 colon, with K-562 leukemia, in the test on KM12 colon, in the test with NCI-H23 lung and with SF-268 CNS was over 100 µM throughout. Also, the TGI in the test with SW-620 colon and with UACC-257 melanoma was over 100 µM throughout.

For `O=C(O)/C(Cl)=C(\Cl)Nc1cccc(C(F)(F)F)c1`, the TGI in the test on COLO 205 colon, with HCT-15 colon, in the test with K-562 leukemia, in the test with NCI-H23 lung, with SF-268 CNS and in the test on SW-620 colon was over 100 µM in each case.

`O=C1C=C(Nc2ccccc2)c2ncccc2C1=O`: the GI50 with COLO 205 colon is 1.95 µM; in the test on HCT-15 colon, 0.321 µM; with KM12 colon, 0.669 µM; in the test with NCI-H23 lung, 0.307 µM; in the test with RPMI-8226 leukemia it was 0.305 µM; with SF-268 CNS it was 0.446 µM. Further, the results for the GI50 in the test with SF-539 CNS, in the test on SW-620 colon and in the test with UACC-257 melanoma were 0.356 µM, 0.34 µM and 1.29 µM, respectively. In addition, the TGI amounted to 3.92 µM in the test with COLO 205 colon; 1.28 µM in the test with HCT-15 colon; 2.11 µM in the test with KM12 colon; 1.31 µM in the test with NCI-H23 lung; 1.3 µM in the test on RPMI-8226 leukemia; 1.8 µM with SF-268 CNS. In addition, the TGI in the test with SF-539 CNS stood at 1.21 µM; in the test on SW-620 colon, 1.28 µM; with UACC-257 melanoma, 2.66 µM.

Consider `CCCCCCCC[N+](C)(C)Cc1ccc(C[N+](C)(C)CCCCCCCC)cc1`, for which the TGI was 3.48 µM in the test on COLO 205 colon; over 100 µM with HCT-15 colon; over 100 µM in the test with K-562 leukemia; over 100 µM in the test with KM12 colon; 47 µM in the test on NCI-H23 lung; over 100 µM in the test with RPMI-8226 leukemia. Also, the TGI in the test with SF-268 CNS, in the test with SW-620 colon and in the test with UACC-257 melanoma was over 100 µM in each case.

Turning to `CCN1C(=O)N(CC)C2C1NN=c1s/c(=C3\C(=O)N(CCC(C)C)c4ccccc43)c(=O)n12` (configuration not stated), the GI50 in the test on HCT-15 colon was 1.31 µM; with K-562 leukemia, 0.586 µM; with KM12 colon, 0.616 µM; with NCI-H23 lung, 1.9 µM; in the test on RPMI-8226 leukemia it was 1.68 µM; with SF-268 CNS, 2.8 µM. Also, the GI50 with SF-539 CNS is 1.11 µM; with SW-620 colon, 1.08 µM; in the test with UACC-257 melanoma, 3.72 µM. The TGI in the test on HCT-15 colon was 3.75 µM; in the test on K-562 leukemia it was over 100 µM; with KM12 colon, 11.4 µM; in the test with NCI-H23 lung, 5.47 µM; in the test with RPMI-8226 leukemia it was 5.77 µM; with SF-268 CNS, 20.5 µM. Further, the values for the TGI in the test on SF-539 CNS, in the test on SW-620 colon and with UACC-257 melanoma were 2.42 µM, over 100 µM and over 100 µM, respectively.

In the case of `Cc1cc(N(CCC#N)CCC#N)ccc1/C=C1/CN(N2C(=O)/C(=C/c3ccc(N(CCC#N)CCC#N)cc3C)N=C2c2ccccc2)C(c2ccccc2)=N1`, the TGI in the test on COLO 205 colon, with HCT-15 colon, in the test with K-562 leukemia, in the test with KM12 colon, in the test with NCI-H23 lung and in the test with SF-268 CNS was over 100 µM throughout. In addition, the TGI with SF-539 CNS, in the test with SW-620 colon and in the test with UACC-257 melanoma was over 100 µM each time.

As to `O=C(O)C1C2C=CC(O2)C1C(=O)Nc1ccccc1` (configuration not stated), the TGI with COLO 205 colon, with HCT-15 colon, in the test on K-562 leukemia, in the test with KM12 colon, with NCI-H23 lung and with RPMI-8226 leukemia was over 100 µM throughout. The TGI with SF-268 CNS, in the test on SW-620 colon and in the test with UACC-257 melanoma was over 100 µM in each case.

For `O=C(O)C(=O)Cc1ccc2c(c1)OCO2`, the TGI in the test on COLO 205 colon, with HCT-15 colon, in the test on K-562 leukemia, in the test on KM12 colon, with NCI-H23 lung and with RPMI-8226 leukemia was over 100 µM throughout. Further, the TGI in the test with SF-539 CNS, in the test on SW-620 colon and in the test on UACC-257 melanoma was over 100 µM throughout.

Take `Cc1ccc(-c2csc(N(C(=O)N3CCN(c4cc5c(cc4F)c(=O)c(C(=O)O)cn5C4CC4)CC3)c3ccccc3)n2)cc1`: the GI50 in the test on K-562 leukemia is 0.269 µM; in the test with KM12 colon, 0.371 µM; in the test with NCI-H23 lung it was 0.317 µM; in the test on RPMI-8226 leukemia, 0.368 µM; in the test with SF-268 CNS, 0.432 µM; in the test on UACC-257 melanoma, 0.372 µM. The TGI in the test with K-562 leukemia, in the test on KM12 colon, in the test with NCI-H23 lung, in the test on RPMI-8226 leukemia, in the test with SF-268 CNS and in the test with UACC-257 melanoma was over 100 µM in each case.

Take `C[C@H](c1ccc(Cl)cc1N)N1C(=O)c2cc(I)ccc2N(CCCN2CCN(C)CC2)C(=O)[C@@H]1c1ccc(Cl)cc1`: the GI50 with HCT-15 colon is 1.68 µM; with K-562 leukemia, 1.57 µM; in the test with KM12 colon, 1.78 µM; in the test with NCI-H23 lung it was 2.18 µM; in the test with RPMI-8226 leukemia, 1.7 µM; in the test on SF-268 CNS it was 1.7 µM. The GI50 in the test on SW-620 colon is 1.72 µM; with UACC-257 melanoma it was 1.24 µM. The TGI in the test with HCT-15 colon was 3.2 µM; with K-562 leukemia, 3.3 µM; in the test with KM12 colon, 3.24 µM; in the test on NCI-H23 lung, 5.86 µM; with RPMI-8226 leukemia, 3.69 µM; with SF-268 CNS it was 3.2 µM. The TGI in the test with SW-620 colon was determined as 3.14 µM; in the test with UACC-257 melanoma, 2.69 µM.

For the molecule `COc1cc(C(=O)C/C(CCC(=O)Nc2ccccc2[N+](=O)[O-])=N\NC(=O)C(N)=O)ccc1O`, the TGI in the test on COLO 205 colon, in the test on HCT-15 colon, in the test on K-562 leukemia, in the test with KM12 colon, with NCI-H23 lung and with SF-268 CNS was over 100 µM throughout. The TGI in the test on SF-539 CNS, with SW-620 colon and in the test with UACC-257 melanoma was over 100 µM each time.

On to `CCCCCCCCN(CCCCCCCC)C(=N)c1ccnc2ccccc12`, for which the GI50 was 0.2 µM with COLO 205 colon; 0.348 µM in the test on HCT-15 colon; 1.49 µM with NCI-H23 lung; 1.31 µM in the test on SF-268 CNS; 1.54 µM in the test with SF-539 CNS; 1.75 µM in the test on UACC-257 melanoma. In addition, the TGI with COLO 205 colon is 0.445 µM; in the test on HCT-15 colon, 1.33 µM; with NCI-H23 lung, 3.03 µM; with SF-268 CNS, 2.89 µM; in the test with SF-539 CNS, 2.99 µM; in the test with UACC-257 melanoma, 3.35 µM.

On to `C/C(=N\O)c1sc(-n2nc(-c3ccccc3)cc2-c2ccccc2)nc1C`, for which the TGI came to 22.9 µM in the test with HCT-15 colon; 24.6 µM in the test with K-562 leukemia; 17.3 µM in the test on KM12 colon; 15.1 µM with NCI-H23 lung; 23.6 µM in the test on RPMI-8226 leukemia; 19.8 µM in the test with SF-268 CNS. In addition, the TGI with SF-539 CNS turned out to be 16.7 µM; in the test with SW-620 colon, 19.6 µM; in the test on UACC-257 melanoma, 21.3 µM.

Consider `O=C1C(=O)c2cc([N+](=O)[O-])ccc2-c2ccccc21`, for which the GI50 with COLO 205 colon is 1.94 µM; in the test on HCT-15 colon it was 1.8 µM; in the test with KM12 colon it was 1.79 µM; in the test with NCI-H23 lung it was 1.65 µM; in the test on RPMI-8226 leukemia, 2.21 µM; in the test with SF-268 CNS, 1.29 µM. For the same molecule, the GI50 in the test on SF-539 CNS was 1.82 µM; with SW-620 colon it was 1.54 µM; with UACC-257 melanoma, 1.7 µM. Also, the TGI in the test with COLO 205 colon amounted to 3.49 µM; in the test on HCT-15 colon it was 3.59 µM; with KM12 colon, 3.23 µM; with NCI-H23 lung, 3.29 µM; with RPMI-8226 leukemia it was 4.7 µM; in the test with SF-268 CNS, 2.62 µM. Further, the TGI was 3.24 µM with SF-539 CNS, 2.98 µM in the test on SW-620 colon and 3.13 µM in the test with UACC-257 melanoma.

For `Cc1cc(C)c(C(=O)O)c(N)c1O`, the TGI in the test with COLO 205 colon, with HCT-15 colon, in the test with K-562 leukemia, in the test on KM12 colon, with NCI-H23 lung and with RPMI-8226 leukemia was over 100 µM throughout. The TGI in the test on SF-268 CNS, in the test with SW-620 colon and with UACC-257 melanoma was over 100 µM throughout.

As to `CCOC(=O)C12CCCC1(O)N(NC(=O)c1cccc(Cl)c1)C(C)=C2C(=O)OC` (configuration not stated), the TGI in the test on HCT-15 colon, in the test on K-562 leukemia, with KM12 colon, with RPMI-8226 leukemia, in the test on SF-268 CNS and with SF-539 CNS was over 100 µM each time. Moreover, the TGI in the test with SW-620 colon and with UACC-257 melanoma was over 100 µM in each case.
